Data reported in patent US20230310432A1 (JULIUS-MAXIMILIANS-UNIVERSITÄT WÜRZBURG, priority 2017, published 2023).
Where two headings read alike, the source gives them in different places.

Columns and labels:
[1] = test system: CD4+ T cells expressing a CD19 CAR with 4-1BB costimulation; assay: Multiplex cytokine analysis, co-culture with K562/CD19; format: cell-based, human; conditions: dasatinib ≥25 nM; 20 h; compared to non-dasatinib treated CAR-T cells
Description: (§2) A multiplex cytokine analysis was performed in supernatant removed from the co-culture.

[2] = test system: CD4+ T cells expressing a CD19 CAR with CD28 costimulatory domain; assay: as above; format: cell-based, human; conditions: dasatinib ≥25 nM; 20 h; compared to non-dasatinib treated CAR-T cells
Description: as §2

[3] = test system: CD8+ T cells expressing a SLAMF7-CAR with 4-1BB costimulation; assay: Bioluminescence-based cytotoxicity assay, K562/SLAMF7 target cells; format: cell-based, human
ZAP70 at tyrosine 319 = assay: Quantitative Western blot of phosphorylation in CD8+ CD19 CAR/4-1BB T cells; format: cell-based, human; conditions: 100 nM dasatinib; co-culture with RCH-ACV
[4] = test system: NFAT-inducible GFP reporter gene in CD8+ CD19 CAR/4-1BB T cells; assay: NFAT-inducible GFP reporter assay; format: cell-based, human; conditions: 100 nM dasatinib; stimulation with Raji, 24 h; 1211 without dasatinib, 117 unstimulated
Description: T cells (co-)expressing the NFAT inducible GFPwt reporter gene were co-cultured in the presence of 10 U IL-2 with irradiated (80 Gy) Raji or K562 tumor cells at an E:T ratio of 5:1 or without target cells. […] After 24 hours of co-culture, cells were labeled with anti-CD3 mAb, and analyzed by flow cytometry to assess GFP expression in T cells.
The inventors prepared CD8^+ CD19 CAR/4-1BB T cells, that the inventors transduced to co-express an NFAT-inducible GFP reporter gene.

[5] = test system: CD8+ CD19 CAR/4-1BB T cells; assay: Apoptosis assay (Annexin-V/7-AAD) after co-culture with K562/CD19; format: cell-based, human
Description: CD8^+ CD19 CAR-T cells were cultured in the presence of 50 U IL-2 either alone or with irradiated (80 Gy) K562/CD19 tumor cells at an E:T ratio of 4:1. […] After 24 hours of co-culture, co-cultures were labeled with anti-CD8 mAb, 7AAD and AnnexinV according to the manufacturer's instructions (BD Biosciences, Heidelberg, Germany), and analyzed by flow cytometry to evaluate the amount of apoptotic and dead T cells.
At the end of the co-culture, the inventors performed staining with Annexin-V and 7-AAD to determine the percentage of live CAR-T cells (Annexin-V-negative/7-AAD-negative), CAR-T cells undergoing apoptosis (Annexin-V-positive/7-AAD-negative), and dead CAR-T cells (Annexin-V-positive/7-AAD-positive).

[6] = test system: NFAT/GFP reporter in CD8+ CD19 CAR/4-1BB T cells; assay: NFAT/GFP reporter assay during sequential stimulation; format: cell-based, human; conditions: day 1
[7] = test system: NFAT inducible GFP reporter gene in CD19CAR/41BB T cells; assay: NFAT-inducible GFP reporter expression in CAR-T cells in vivo; design: species or system NSG mice
Source text: The inventors prepared CD8^+ and CD4^+ CD19CAR/41BB T cells, which the inventors transduced to co-express an NFAT inducible GFP reporter gene.

[8] = test system: activated CD19 CAR/4-1BB-T cells; format: in vivo, NSG mice
[9] = test system: CD19 CAR/4-1BB-T cells; Raji tumor cells; assay: Flow cytometry of tumor cells and human CAR-T cells in bone marrow and spleen, intermittent dasatinib; format: in vivo, NSG mice; conditions: day 15
Description: The Institutional Animal Care and Use Committee of UKW approved all mouse experiments. NOD.Cg-Prkdc^scidIl2rg^tm1wjl/SzJ (NSG) mice (female, 6-8 week old) were purchased from Charles River (Sulzfeld, Germany). Mice were inoculated with 1×10^6 Raji/ffluc_GFP tumor cells via tail vein injection (i.v.). Mice were treated with 5×10^6 CAR-modified or control untransduced T-cells (CD4:CD8 ratio=1:1) via tail vein injection (i.v.). […] Tumor burden and distribution was analyzed by serial bioluminescence imaging on an IVIS Lumina imager (Perkin Elmer, Baesweiler, Germany): mice received i.p. injections of 0.3 mg/g luciferin and images were acquired 10 minutes after luciferin injection in small binning mode at an acquisition time of 1 s to 1 min to obtain unsaturated images. Data were analyzed using LivingImage Software (Caliper) and the average radiance (or photon flux) analyzed in regions of interest that encompassed the entire body of each individual mouse. Mice were sacrificed at the end of the experiment and human T cells in bone marrow, peripheral blood and spleen were analyzed by flow cytometry. The presence of (human) cytokines in serum was measured using multiplex cytokine analysis.
(§1) In brief, cohorts of 1-12 mice were inoculated with 1×10^6 firefly-luciferase_GFP-transduced Raji tumor cells on day 0. […] Serial bioluminescence imaging was performed to determine tumor burden on day 7, 9 and 15.
On day 15, mice were sacrificed and peripheral blood (PB), bone marrow (BM) and spleen (SP) analyzed for the presence of human CAR-T cells by flow cytometry.

[10] = test system: PD-1 on CD19 CAR/4-1BB T cells; assay: Surface expression of PD-1 on human CAR-T cells by flow cytometry, intermittent dasatinib; format: in vivo, NSG mice; conditions: intermittently treated (CAR/+)
Description: as §1
Based on the mouse model introduced in Example 11 (FIG. 21A), the inventors analyzed the surface expression of PD-1 on human CAR-T cells in bone marrow (BM), peripheral blood (PB) and spleen (SP) by flow cytometry.

[11] = dasatinib added at 2 hours after the start of the co-culture, 24 h
[12] = d+3, dasatinib not in effect any more

SMILES: Cc1nc(Nc2ncc(C(=O)Nc3c(C)cccc3Cl)s2)cc(N2CCN(CCO)CC2)n1 [dasatinib]
- reduction of production and secretion of GM-CSF, IFN-γ, IL-2, IL-4, IL-5, IL-6, IL-8 [1]: > 95%
- reduction of production and secretion of GM-CSF, IFN-γ, IL-2, IL-4, IL-5, IL-6, IL-8 [2]: > 95%
- specific lysis of target cells ([3]; dasatinib 20 nM, t=6 h, 63% by non-dasatinib treated): 21%
- specific lysis of target cells ([3]; dasatinib 20 nM, t=12 h, 83% by non-dasatinib treated): 35%
- specific lysis of target cells ([3]; dasatinib ≥40 nM, t=12 h, 83% by non-dasatinib treated): less than 10%
- specific lysis of target cells ([3]; dasatinib ≥40 nM, up to t=6 h): less than 5.5%
- phosphorylation compared to CAR-T cells co-cultured in the absence of dasatinib (ZAP70 at tyrosine 319): 11.61%
- mean fluorescence intensity (MFI) of GFP expression [4]: 129
- dead CAR-T cells (Annexin-V-positive/7-AAD-positive) ([5]; 100 nM dasatinib present, 24 h with K562/CD19, 8.4% in absence): 6.9%
- alive CAR-T cells (Annexin-V-negative/7-AAD-negative) ([5]; 100 nM dasatinib present, 24 h with K562/CD19, 25.4% in absence): 47.4%
- apoptotic CAR-T cells (Annexin-V-positive/7-AAD-negative) ([5]; 100 nM dasatinib present, 24 h with K562/CD19, 66.2% in absence): 45.7%
- alive CAR-T cells [5, 11]: 41.7%
- apoptotic CAR-T cells [5, 11]: 51.3%
- dead CAR-T cells [5, 11]: 7%
- GFP MFI ([6]; dasatinib added one hour after assay set up, 1949 in untreated stimulated CAR-T cells): 734
- GFP MFI ([6]; dasatinib present from the beginning): 137
- mean fluorescence intensity (MFI) for GFP in bone marrow CAR-T cells ([7]; d+1, CAR/treated, 10687 CAR/untreated): 6967
- reduction of GFP MFI, bone marrow CAR-T cells ([7]; d+1, treated vs untreated): 35%
- reduction of GFP reporter gene expression, spleen CAR-T cells ([7]; d+1, treated vs untreated): 36%
- difference in GFP between previously treated and untreated CAR-T cells, bone marrow [7, 12]: 10%
- difference in GFP between previously treated and untreated CAR-T cells, spleen [7, 12]: 23%
- serum level of IFN-γ ([8]; day 12, CAR(ON/OFF/ON), 157 pg/ml in CAR(ON)): 24 pg/mL
- serum level of IFN-γ ([8]; day 14, dasatinib discontinued): 38 pg/mL
- percentage of human CAR-T cells, bone marrow ([9]; intermittent dasatinib, 1.9% without): 7.3%
- percentage of human CAR-T cells, spleen ([9]; intermittent dasatinib, 3.2% without): 6.9%
- remaining tumor burden, of all living cells in the bone marrow ([9]; one exemplary mouse, CAR-T cells and intermittent dasatinib, 58.8% CAR-T cells only): 0.22%
- PD-1 mean fluorescence intensity (MFI) on CAR-T cells, peripheral blood ([10]; 4110 not exposed): 2775
- PD-1 mean fluorescence intensity (MFI) on CAR-T cells, spleen ([10]; 4318 not exposed): 23652
- PD-1 mean fluorescence intensity (MFI) on CAR-T cells, bone marrow ([10]; 9461 not exposed): 7025
